Experimental data reported in PubChem BioAssay AID2060491 (Molecular Pharmacology Branch, DTP, NCI, 2025).

System: 857933-349-R-J2-PDC complex spheroids, viability
Assay: Anticancer human tumor 857933-349-R-J2-PDC patient-derived colon adenocarcinoma cell line growth inhibition [GQUAD]
Details: for IC50: curve of first compound; for viability, T/C: stronger effect = lower value
How it was run: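 Multi-cell-type spheroids of tumor cells with HUVEC and mesenchymal stem cells, treated with drug combinations. Concentrations descend in half-log steps from near clinical Cmax, or from 10 microM where Cmax is unknown; viability read-out.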

[1] = second compound 0.0316 µM, first compound 0.0316 µM
[2] = second compound 0.0316 µM, first compound 0.1 µM
[3] = second compound 0.0316 µM, first compound 0.316 µM
[4] = second compound 0.0316 µM, first compound 1 µM
[5] = second compound 0.0316 µM, first compound 3.16 µM
[6] = second compound 0.0316 µM, first compound 10 µM
[7] = second compound 0.1 µM, first compound 0.0316 µM
[8] = second compound 0.1 µM, first compound 0.1 µM
[9] = second compound 0.1 µM, first compound 0.316 µM
[10] = second compound 0.1 µM, first compound 1 µM
[11] = second compound 0.1 µM, first compound 3.16 µM
[12] = second compound 0.1 µM, first compound 10 µM
[13] = second compound 0.316 µM, first compound 0.0316 µM
[14] = second compound 0.316 µM, first compound 0.1 µM
[15] = second compound 0.316 µM, first compound 0.316 µM
[16] = second compound 0.316 µM, first compound 1 µM
[17] = second compound 0.316 µM, first compound 3.16 µM
[18] = second compound 0.316 µM, first compound 10 µM
[19] = second compound 1 µM, first compound 0.0316 µM
[20] = second compound 1 µM, first compound 0.1 µM
[21] = second compound 1 µM, first compound 0.316 µM
[22] = second compound 1 µM, first compound 1 µM
[23] = second compound 1 µM, first compound 3.16 µM
[24] = second compound 1 µM, first compound 10 µM
[25] = second compound 3.16 µM, first compound 0.0316 µM
[26] = second compound 3.16 µM, first compound 0.1 µM
[27] = second compound 3.16 µM, first compound 0.316 µM
[28] = second compound 3.16 µM, first compound 1 µM
[29] = second compound 3.16 µM, first compound 3.16 µM
[30] = second compound 3.16 µM, first compound 10 µM
[31] = second compound 10 µM, first compound 0.0316 µM
[32] = second compound 10 µM, first compound 0.1 µM
[33] = second compound 10 µM, first compound 0.316 µM
[34] = second compound 10 µM, first compound 1 µM
[35] = second compound 10 µM, first compound 3.16 µM
[36] = second compound 10 µM, first compound 10 µM
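Further: spheroids exposed to compounds for one week before readout.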
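Wherever viability, T/C is given: percent viability relative to vehicle DMSO wells taken as 100%.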

In the case of CC1COCCN1c1cc(C2(O)CC3CCC(C2)O3)c2cnn(-c3ccn[nH]3)c2n1 (stereo unspecified) + Cc1cnc(CNC(=O)c2c(=O)c3ccc(N4CCCN(C)CC4)nc3n3c2sc2ccccc23)cn1, the IC50 (second compound 0.0316 µM) is reported as < 31.6 nM, the IC50 (second compound 0.1 µM) is reported as < 31.6 nM and the IC50 (second compound 0.316 µM) is reported as < 31.6 nM. For the same compound, the IC50 (second compound 1 µM) was < 31.6 nM, the IC50 (second compound 3.16 µM) was < 31.6 nM and the IC50 (second compound 10 µM) was < 31.6 nM. For the same compound, the viability, T/C [1] was 49.9%, the viability, T/C [2] was 38.6% and the viability, T/C [3] was 36.8%. For the same compound, the viability, T/C [4] was 32.6%, the viability, T/C [5] was 35.3% and the viability, T/C [6] was 32%. It also gave a viability, T/C [7] of 33%, a viability, T/C [8] of 30.3% and a viability, T/C [9] of 21.1%. The viability, T/C [10] was 28%, the viability, T/C [11] was 31.8% and the viability, T/C [12] was 34%. It also gave a viability, T/C [13] of 8.32%, a viability, T/C [14] of 5.49% and a viability, T/C [15] of 5.41%. For the same compound, the viability, T/C [16] was 4.77%, the viability, T/C [17] was 9.73% and the viability, T/C [18] was 13.8%. It also gave a viability, T/C [19] of 2.88%, a viability, T/C [20] of 2.12% and a viability, T/C [21] of 2.17%. The viability, T/C [22] was 2.14%, the viability, T/C [23] was 4.27% and the viability, T/C [24] was 1.54%. The viability, T/C [25] was 1.85%, the viability, T/C [26] was 1.84% and the viability, T/C [27] was 1.55%. For the same compound, the viability, T/C [28] was 1.35%, the viability, T/C [29] was 1.5% and the viability, T/C [30] was 0.57%. It also gave a viability, T/C [31] of 0.52%, a viability, T/C [32] of 0.38% and a viability, T/C [33] of 0.33%. For the same compound, the viability, T/C [34] was 0.38%, the viability, T/C [35] was 0.85% and the viability, T/C [36] was 0.32%.
Cc1[nH]c2ccccc2c1CCNCc1ccc(/C=C/C(=O)NO)cc1 + Cc1[nH]c2ccc(F)cc2c1-c1nc2c3cccnc3c3ncccc3c2[nH]1 was tested, and the IC50 (second compound 0.0316 µM) was > 316 nM, the IC50 (second compound 0.1 µM) was > 316 nM and the IC50 (second compound 0.316 µM) was > 316 nM. For the same compound, the IC50 (second compound 1 µM) was > 316 nM, the IC50 (second compound 3.16 µM) was > 316 nM and the IC50 (second compound 10 µM) was > 316 nM. It also gave a viability, T/C (second compound 0.0316 µM, first compound 0.000999 µM) of 103%, a viability, T/C (second compound 0.0316 µM, first compound 0.00316 µM) of 95.8% and a viability, T/C (second compound 0.0316 µM, first compound 0.00999 µM) of 97.6%. The viability, T/C [1] was 104%, the viability, T/C (second compound 0.0316 µM, first compound 0.0999 µM) was 94% and the viability, T/C [3] was 59.1%. It also gave a viability, T/C (second compound 0.1 µM, first compound 0.000999 µM) of 104%, a viability, T/C (second compound 0.1 µM, first compound 0.00316 µM) of 101% and a viability, T/C (second compound 0.1 µM, first compound 0.00999 µM) of 102%. It also gave a viability, T/C [7] of 106%, a viability, T/C (second compound 0.1 µM, first compound 0.0999 µM) of 99.7% and a viability, T/C [9] of 60.7%. The viability, T/C (second compound 0.316 µM, first compound 0.000999 µM) was 101%, the viability, T/C (second compound 0.316 µM, first compound 0.00316 µM) was 104% and the viability, T/C (second compound 0.316 µM, first compound 0.00999 µM) was 96%. For the same compound, the viability, T/C [13] was 92.8%, the viability, T/C (second compound 0.316 µM, first compound 0.0999 µM) was 107% and the viability, T/C [15] was 59.2%. For the same compound, the viability, T/C (second compound 1 µM, first compound 0.000999 µM) was 109%, the viability, T/C (second compound 1 µM, first compound 0.00316 µM) was 90% and the viability, T/C (second compound 1 µM, first compound 0.00999 µM) was 93.7%. It also gave a viability, T/C [19] of 97.7%, a viability, T/C (second compound 1 µM, first compound 0.0999 µM) of 105% and a viability, T/C [21] of 61.4%. It also gave a viability, T/C (second compound 3.16 µM, first compound 0.000999 µM) of 90.8%, a viability, T/C (second compound 3.16 µM, first compound 0.00316 µM) of 79.8% and a viability, T/C (second compound 3.16 µM, first compound 0.00999 µM) of 86.2%. For the same compound, the viability, T/C [25] was 88%, the viability, T/C (second compound 3.16 µM, first compound 0.0999 µM) was 104% and the viability, T/C [27] was 66.8%. It also gave a viability, T/C (second compound 10 µM, first compound 0.000999 µM) of 87%, a viability, T/C (second compound 10 µM, first compound 0.00316 µM) of 89.4% and a viability, T/C (second compound 10 µM, first compound 0.00999 µM) of 88.1%. The viability, T/C [31] was 95.3%, the viability, T/C (second compound 10 µM, first compound 0.0999 µM) was 105% and the viability, T/C [33] was 61%.
With CC(C)(O)C1CCC(Nc2ccc3ncc(-c4cccc(C(F)(F)F)c4)n3n2)CC1 (stereo unspecified) + Cc1cnc(CNC(=O)c2c(=O)c3ccc(N4CCCN(C)CC4)nc3n3c2sc2ccccc23)cn1 the IC50 (second compound 0.0316 µM) was 487 nM, the IC50 (second compound 0.1 µM) was 151 nM and the IC50 (second compound 0.316 µM) was < 31.6 nM. The IC50 (second compound 1 µM) was < 31.6 nM, the IC50 (second compound 3.16 µM) was < 31.6 nM and the IC50 (second compound 10 µM) was < 31.6 nM. The viability, T/C [1] was 86.5%, the viability, T/C [2] was 76% and the viability, T/C [3] was 73.6%. It also gave a viability, T/C [4] of 11.1%, a viability, T/C [5] of 0.4% and a viability, T/C [6] of 0.23%. For the same compound, the viability, T/C [7] was 53.4%, the viability, T/C [8] was 57.2% and the viability, T/C [9] was 41.4%. The viability, T/C [10] was 14%, the viability, T/C [11] was 0.2% and the viability, T/C [12] was 0.19%. It also gave a viability, T/C [13] of 16.1%, a viability, T/C [14] of 12.6% and a viability, T/C [15] of 8.9%. The viability, T/C [16] was 7.61%, the viability, T/C [17] was 0.11% and the viability, T/C [18] was 0.07%. For the same compound, the viability, T/C [19] was 3.09%, the viability, T/C [20] was 3% and the viability, T/C [21] was 2.95%. For the same compound, the viability, T/C [22] was 3.84%, the viability, T/C [23] was 0.05% and the viability, T/C [24] was 0.07%. It also gave a viability, T/C [25] of 1.54%, a viability, T/C [26] of 1.85% and a viability, T/C [27] of 2.05%. It also gave a viability, T/C [28] of 1.16%, a viability, T/C [29] of 0.11% and a viability, T/C [30] of 0.12%. For the same compound, the viability, T/C [31] was 0.23%, the viability, T/C [32] was 0.19% and the viability, T/C [33] was 0.3%. It also gave a viability, T/C [34] of 0.28%, a viability, T/C [35] of 0.22% and a viability, T/C [36] of 0.21%.
